The values below come from publication PMC12648443, “Modifications of NU-9, a potent protein aggregation inhibitor. Properties and activity in a cellular model of amyotrophic lateral sclerosis” (Bioorganic chemistry, 2025).

Data set [1] in a line: Microsomal metabolic stability, mouse. In kind it is in vitro ADME. The conditions noted are these: liver microsomes; for microsomal CLint at 1.1 μM: pH 7.4, 0.5 mg/mL; for half-life at 1.1 μM: pH 7.4, read-out: t1/2 (mouse). The protocol:
The assay was performed at Jubilant Biosys. Vials containing human or mouse microsomes were collected from the -80 °C freezer and thawed on ice. Then 27.5 μL of the initial microsome solutions (20 mg/mL) were diluted in 971.5 μL of a 67 mM potassium phosphate buffer solution (pH 7.4). The testing compounds were diluted in the buffered microsomal solution to obtain a final concentration of 1.1 μM. Then four different aliquots, each containing 180 μL of the assay solution, representing the samples at T = 0, T = 5, T = 15, and T = 30 min. The samples were pre-incubated at 37 °C for 5 min with gentle shaking, and then 20 μL of a NADPH solution (10 mM) was added to the different solutions of the test compounds. […] An aliquot of the supernatant (200 μL) was collected from each reaction sample and analyzed by LC-MS/MS. The Ln values of the peak area of the compounds to the internal standard over time (min.) were graphed using Excel, and the elimination rates of the compounds (k) were determined from the slopes obtained from the graphs. The k values were used to calculate the compounds half-life using the equation: t1/2=Ln2/k The intrinsic clearance (CLint) of each compound in the presence of mouse and human microsomes was calculated using the equation: […] Verapamil and Ketoconazole were used as controls to evaluate the assay performance. The results are presented as an average of two technical replicates.
(In general: Liver microsomes are vesicles of endoplasmic reticulum, rich in cytochrome P450 enzymes.)

Data set [2] can be described thus: Parallel artificial membrane permeability assay - blood brain barrier (PAMPA-BBB). The conditions noted are these: for Log Pe: PAMPA-BBB, High permeability LogPe > −5.33, No permeability LogPe < −6.14; for Papp at 18 h, 250 μM: pig, PAMPA, pH 7.5. Background: PAMPA measures passive passage across an artificial lipid membrane.
Experimental: A solution of 1 × PBS (pH 7.5) was initially prepared by the dilution of a commercially available 10 × PBS solution. […] A solution of porcine brain lipid (PBL) (20 mg/mL in dodecane) was prepared, and 4 μL of this solution was used to coat the filters on the bottom of the PAMPA donor plates (Sigma Aldrich #MAIPNTR10). After air drying for 20 min, the donor plate wells were charged with 250 μL of the solutions of the test compounds or the controls. The donor plate was then placed over the acceptor plate (Sigma Aldrich #MATRNPS50), in which wells were previously filled with 1 × PBS (2 % DMSO v/v) solution. The PAMPA sandwich was closed with parafilm and incubated at 25 °C for 18 h in a humidity-saturated atmosphere with orbital agitation. […] The UV spectra (250–400 nm) of each well were acquired on a BioTek Synergy H1 MD plate reader equipped with a monochromator at room temperature.
CA(t) is the concentration of the compounds at the final time of incubation on the acceptor well; CD(0) and CD(t) are the concentration of the compounds at the initial time of incubation and at the final time of incubation on the donor well, respectively.
Data set [3] deals with T1, P-gp (Homo sapiens, UniProt P08183).
T1 construct: host or cells: MDCK-MDR1 (Madin Darby canine kidney cells carrying the MDR1 gene)
In words: MDCK-MDR1 bidirectional permeability / efflux assay. The class given is in vitro ADME. The conditions noted are these: MDCK-MDR1; for Papp A→B at 120 min / Papp B→A at 120 min / efflux ratio at 120 min: dog. The protocol:
The assay was carried out at Sai Life Sciences. Stock solutions of 6, 20, assay controls loperamide, atenolol, and propanolol (4 and 20 mM), and P-gp inhibitor zosuquidar (10 mM) were prepared in DMSO. Then the stock solutions from each test compound were diluted in HBSS buffer containing 10 mM HEPES to obtain the assay working solutions without the P-gp inhibitor at 2 and 10 μM (0.1 % DMSO v/v). Into working solutions containing zosuquidar (5 μM) were individually diluted 6, 20, and loperamide to obtain working solutions containing the test compounds at 2 or 10 μM and zosuquidar at 5 μM.
The MDCK-MDR1 (Madin Darby canine kidney - Multidrug Resistance gene-1) cells were cultured in DMEM media supplemented with 10 % FBS and antibiotics. For transport studies, cells were seeded into PET trans filter membranes (Millipore #PSRP010R5; 1.0 μm pore size) at a density of 1.2 × 10^5 cells/well and colchicine was added to the flasks and plates according to their volume. After 24 h, the media were replaced by fresh media and then changed every 2 days over 8 days. The media were removed from the wells of the basal and apical compartments of the plates, and a solution of HBSS with or without zosuquidar (5 μM) was added to the apical (400 μL) and basal (800 μL) sides of the plates. The plates were pre-incubated at 37 °C for 30 min in humidified air with 5 % CO2. The TTER (Transepithelial-Transendothelial Electrical Resistance) value for each well was recorded (assay TEER >83 Ω.cm^2). The buffer was removed from both compartments, and for the apical to basal direction transport determination, the apical compartment was loaded with 400 μL of the working solutions of the tested compounds or controls (2 or 10 μM) in the presence or absence of zosuquidar (5 μM), and the basal compartment was loaded with 800 μL of HBSS (0.1 % DMSO v/v). For the basal to apical direction transport determination, the compartments were loaded in their reverse order. The assay was performed in duplicate for the two transport directions [apical to basolateral (A → B) and basolateral to apical (B → A)]. After 120 min, 100 μL samples from both the apical and basal sides of the plate were transferred to new 96-deep well plates, quenched with acetonitrile containing an internal standard, vortexed for 5 min, and then centrifuged at 4000 rpm for 10 min. The same procedure was used to prepare a 96-deep well plate containing non-assayed working solutions (t = 0 concentrations). After centrifugation, 100 μL of the supernatant of each well was transferred to a new 96-well plate, and the samples were analyzed by LC-MS/MS.
For each experiment, the apparent permeability (Papp) for each direction and the efflux ratio (ER) were determined by the equations: Papp(cm/s)=(dQ/dt)/A×Co
where dQ/dt is the rate of permeation of the tested compounds across the (0 and 120 min) after correcting for dilution; A is the area of the filter (0.7 cm^2); Co is the initial concentration of the compounds on the donor compartment.
Where P(B→A) is the apparent permeability of the compounds from the basal to the apical direction and P(A→B) is the apparent permeability from the apical to basal direction. Lucifer Yellow was used as a control of the assay to evaluate monolayer integrity after incubation with the working solutions of the compounds, and the results were validated if the permeability of Lucifer Yellow from the apical to the basal side after 1-h incubation was kept <2 %. The results are presented as an average of two independent experiments.

T1 sequence (P08183 whole entry): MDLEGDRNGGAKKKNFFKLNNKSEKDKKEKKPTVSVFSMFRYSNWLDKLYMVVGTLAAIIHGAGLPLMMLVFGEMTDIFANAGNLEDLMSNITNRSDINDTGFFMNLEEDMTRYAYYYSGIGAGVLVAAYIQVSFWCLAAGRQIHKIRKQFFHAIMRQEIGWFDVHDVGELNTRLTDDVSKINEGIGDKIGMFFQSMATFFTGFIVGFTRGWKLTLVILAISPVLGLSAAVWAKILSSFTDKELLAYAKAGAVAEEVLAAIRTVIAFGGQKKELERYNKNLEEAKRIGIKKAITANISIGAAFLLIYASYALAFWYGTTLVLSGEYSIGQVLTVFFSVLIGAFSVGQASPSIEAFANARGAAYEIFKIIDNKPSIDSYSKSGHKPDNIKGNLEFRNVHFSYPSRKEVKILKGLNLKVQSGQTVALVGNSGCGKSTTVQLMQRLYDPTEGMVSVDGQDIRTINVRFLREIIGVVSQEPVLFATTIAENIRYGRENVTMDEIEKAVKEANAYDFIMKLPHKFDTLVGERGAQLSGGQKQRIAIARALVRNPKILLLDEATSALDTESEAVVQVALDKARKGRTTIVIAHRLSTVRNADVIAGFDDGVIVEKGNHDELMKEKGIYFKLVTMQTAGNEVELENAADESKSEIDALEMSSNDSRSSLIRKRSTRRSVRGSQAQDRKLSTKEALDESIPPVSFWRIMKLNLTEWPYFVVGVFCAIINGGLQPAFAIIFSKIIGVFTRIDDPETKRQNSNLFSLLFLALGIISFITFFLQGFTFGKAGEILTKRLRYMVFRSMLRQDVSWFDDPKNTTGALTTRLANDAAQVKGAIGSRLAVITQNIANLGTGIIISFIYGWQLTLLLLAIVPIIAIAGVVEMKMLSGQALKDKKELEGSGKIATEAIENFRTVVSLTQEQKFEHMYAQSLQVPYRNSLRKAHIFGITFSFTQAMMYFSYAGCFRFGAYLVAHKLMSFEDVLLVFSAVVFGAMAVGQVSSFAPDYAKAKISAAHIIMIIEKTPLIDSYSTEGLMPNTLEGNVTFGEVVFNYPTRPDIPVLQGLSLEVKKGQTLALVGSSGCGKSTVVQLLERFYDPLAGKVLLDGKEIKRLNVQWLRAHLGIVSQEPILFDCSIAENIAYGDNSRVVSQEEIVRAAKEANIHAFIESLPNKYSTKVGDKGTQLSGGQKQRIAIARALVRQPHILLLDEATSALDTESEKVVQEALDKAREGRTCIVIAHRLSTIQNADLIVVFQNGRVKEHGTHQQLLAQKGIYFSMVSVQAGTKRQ

With `CC(C)(Oc1cc(C(F)(F)F)cc(C(F)(F)F)c1)C1CC(=O)CC(=O)C1` [Compound 20, 5-(2-(3,5-bis(trifluoromethyl)phenoxy)propan-2-yl)cyclohexane-1,3-dione], in data set [1], the intrinsic metabolic clearance (microsomal CLint) (commonly the capacity of the preparation to metabolise the compound, expressed as a volume cleared per time) at 1.1 μM is 35.7 ± 4.7 µL/min/mg and the half-life at 1.1 μM worked out at 40.7 ± 3.8 min. For the same molecule, in data set [2], the “Log Pe” value is reported as −4.94; the Papp (as a rule, the rate of passage across a membrane or cell layer, normalised by area and donor concentration) at 18 h, 250 μM amounted to 11.5 ± 0.66 ×10⁻⁶ cm/s. In data set [3], the “substrate for the P-gp transporter” value is given as “substrates”; the Papp A→B (commonly how fast a substance crosses the layer from the apical side) at 120 min came out at 5.82 ± 0.06 ×10⁻⁶ cm/s; the basolateral-to-apical permeability (Papp B→A) (in general, the apparent permeability from the basolateral to the apical side of a cell layer) at 120 min worked out at 14.7 ± 0.78 ×10⁻⁶ cm/s; the efflux ratio (as a rule, a quotient of directional permeabilities that is used to spot active efflux) at 120 min is 2.53.
For the molecule `O=C1CC(=O)CC(/C=C/c2cc(C(F)(F)F)cc(C(F)(F)F)c2)C1` [Compound 6, (E)-5-(3,5-Bis(trifluoromethyl)styryl)cyclohexane-1,3-dione], in data set [1], the intrinsic clearance (microsomal CLint) at 1.1 μM was found to be 67.3 ± 0.9 µL/min/mg and the half-life at 1.1 μM was determined as 20.7 ± 0.3 min. In data set [2], the “Log Pe” value is −5.07 and the Papp at 18 h, 250 μM is 8.46 ± 0.1 ×10⁻⁶ cm/s. In addition, in data set [3], the “substrate for the P-gp transporter” value is “substrates”, the Papp A→B at 120 min was found to be 10.6 ± 1.28 ×10⁻⁶ cm/s, the basolateral-to-apical permeability (Papp B→A) at 120 min came out at 24.31 ± 0.18 ×10⁻⁶ cm/s and the efflux ratio at 120 min is 2.29.
